Data published in patent US8785452B2, “Anti-infective compounds” (priority 2008, dated 2014).
Converted amounts (≈) assume the structure as drawn. Read-outs that look alike come from different tables or passages of the source.

Assays:
C. jeikeium = experiment: Antimicrobial spectrum; assay type: cell-based, Corynebacterium; details: C. jeikeium, clinical isolates from CHU d'Angers
Jurkat-T-cell = experiment: Cytotoxicity assay (resazurin); assay type: cell-based; details: 5 days
Procedure: (§1) In order to address compound toxicity, seven cell lines originating from different body tissues were cultivated in the presence of 3-fold dilutions of compounds starting from 100 μM. After 5 days of culture, cell viability was assessed by the resazurin test. Briefly, cells were incubated with 10 μg/mL of resazurin (Sigma-Aldrich St. Louis, Mo.) for 4 h at 37° C. under 5% CO2. Resofurin fluorescence (RFU) was measured as indicated above. Percentage of toxicity on cells was calculated as follows: Cytotoxicity (%)=(RFUDMSO−RFUBlank)−(RFUcompound−RFUblank)/(RFUDMSO−RFUBlank)×100. Percentage of cytotoxicity was plotted against compound concentration and the minimal toxic concentration (MTC50) was determined by non-linear regression analysis as the lowest compound concentration where fifty percent toxicity was observed on the corresponding cell line.

BJ-Skin = experiment: Cytotoxicity assay (resazurin); assay type: cell-based; details: 5 days
Procedure: as §1

HEK293-Kidney = experiment: Cytotoxicity assay (resazurin); assay type: cell-based; details: 5 days
Procedure: as §1

HepG2-Hepatocytes = experiment: Cytotoxicity assay (resazurin); assay type: cell-based; details: 5 days
Procedure: as §1

THP-1-Monocytes = experiment: Cytotoxicity assay (resazurin); assay type: cell-based; details: 5 days
Procedure: as §1

SK-N-SH-Brain = experiment: Cytotoxicity assay (resazurin); assay type: cell-based; details: 5 days
Procedure: as §1

MRC5-Lung = experiment: Cytotoxicity assay (resazurin); assay type: cell-based; details: 5 days
Procedure: as §1

[1] = test system: M. tuberculosis clinical isolates; assay type: cell-based, Mycobacterium tuberculosis
Primary BMDM = experiment: Cytotoxicity assay (resazurin); details: 5 days
[2] = test system: panel of cell lines derived from different body tissue; experiment: Cytotoxicity assay (resazurin), whole panel; details: 5 days co-incubation, 133 up to 100 μM
[3] = test system: Primary human macrophages; experiment: Cytotoxicity assay (resazurin); details: 5 days
M. tuberculosis H37Ra = experiment: MIC, in vitro bacterial growth assay; assay type: cell-based; details: Mycobacterium tuberculosis, H37RA
BCG Pasteur-Tokyo = experiment: microbe, parasite or virus in culture; assay type: cell-based; details: Mycobacterium tuberculosis variant bovis BCG
C. striatum = experiment: Antimicrobial spectrum; assay type: cell-based, Corynebacterium; details: C. striatum, clinical isolates from CHU d'Angers
M. bovis BCG Pasteur = experiment: microbe, parasite or virus in culture; assay type: cell-based; details: Mycobacterium tuberculosis variant bovis BCG
[4] = test system: Gram-positive: Staphylococcus aureus, S. epidermis, S. capitis, S. xylosus, Micrococcus luteus, Listeria innocua, Lactobacillus gallinarum, group G …; experiment: Antimicrobial spectrum; assay type: cell-based; details: Gram-positive panel, clinical isolates from CHU d'Angers
[5] = test system: Gram-negative: Acinetobacter baumannii, Escherichia coli, Enterobacter cloacae, E. aerogenes, Klebsiella oxytoca, Pseudomonas aeruginosa, Salmonella enteridis …; experiment: Antimicrobial spectrum; assay type: cell-based; details: Gram-negative panel, clinical isolates from CHU d'Angers
M. tuberculosis H37Rv [6] = experiment: MIC, in vitro bacterial growth assay; assay type: cell-based; details: Mycobacterium tuberculosis, H37RV
in vitro = details: human
M. tuberculosis H37Rv [7] = experiment: Conventional CFU determination in infected macrophages; assay type: cell-based, Mycobacterium tuberculosis; details: human and mouse cells; seven days after infection; 232 at 20 μM
[8] = test system: Fungi: Candida albicans, C. glabrata, C. parapsilosis; experiment: Antimicrobial spectrum; assay type: cell-based; details: Candida panel, clinical isolates from CHU d'Angers
M. smegmatis mc^2 155 = experiment: MIC, in vitro bacterial growth assay; assay type: cell-based, Mycobacterium smegmatis; details: mc^2 155

## Cc1cccn2c(=O)c(C=O)c(Nc3cccc(Cl)c3)nc12 [compound 133, 2-(3-Chlorophenylamino)-9-methyl-4-oxo-4H-pyrido[1,2-a]pyrimidine-3-carbaldehyde]
C. jeikeium
  antimicrobial effect: NE (NE: No effect up to 100 μg/mL equivalent to 320 μM)
Jurkat-T-cell
  Range of MTC50: >100 µM
BJ-Skin
  Range of MTC50: >100 µM
HEK293-Kidney
  Range of MTC50: >100 µM
HepG2-Hepatocytes
  Range of MTC50: >100 µM
THP-1-Monocytes
  Range of MTC50: >100 µM
SK-N-SH-Brain
  Range of MTC50: >100 µM
MRC5-Lung
  Range of MTC50: >100 µM
[1]; Drug Sensitive, Tissue
  Range of MICs for multiple strains: 2.5 to 5 µM
[1]; INH^R RIF^R Strep^R, Sputum
  Range of MICs for multiple strains: 0.3 to 1.2 µM
[1]; INH^R RIF^R Strep^R, Tissue
  Range of MICs for multiple strains: 1.2 µM
[1]; MDR, Sputum
  Range of MICs for multiple strains: 0.3 to 1.2 µM
[1]; MDR, Tissue
  Range of MICs for multiple strains: 1.2 µM
[1]; RIF^R, Sputum
  Range of MICs for multiple strains: 2.5 µM
[1]; RIF^R, Tissue
  Range of MICs for multiple strains: 1.2 µM
[1]; XDR, Sputum
  Range of MICs for multiple strains: 0.6 to 2.5 µM
[1]; XDR, Tissue
  Range of MICs for multiple strains: 0.3 to 5 µM
Primary BMDM
  Range of MTC50: >100 µM
[2]
  cytotoxicity against the panel of cell lines: no cytotoxicity
[3]
  Range of MTC50: >100 µM
M. tuberculosis H37Ra
  MIC: 2 µM (≈ 0.627 µg/mL)
BCG Pasteur-Tokyo
  MIC: 2 µM (≈ 0.627 µg/mL)
C. striatum
  antimicrobial effect: NE (NE: No effect up to 100 μg/mL equivalent to 320 μM)
M. bovis BCG Pasteur
  MIC: 2 µM (≈ 0.627 µg/mL)
[4]
  antimicrobial effect: NE (NE: No effect up to 100 μg/mL equivalent to 320 μM)
[5]
  antimicrobial effect: NE (NE: No effect up to 100 μg/mL equivalent to 320 μM)
M. tuberculosis H37Rv [6]
  MIC: 2 µM (≈ 0.627 µg/mL)
In vitro
  selectivity ratio: > 50
M. tuberculosis H37Rv [7]
  decrease in the number of CFUs: ten-fold decrease
[8]
  antimicrobial effect: NE (NE: No effect up to 100 μg/mL equivalent to 320 μM)
M. smegmatis mc^2 155; Mycolicibacterium smegmatis, MC^2155, read-out: MIC
  MIC: > 100 µM
M. smegmatis mc^2 155
  MIC (μM): no effect
